This passage reports inhibition results from ChEMBL document CHEMBL4418259, “Flavan-3-ol containing foodstuffs” (2012).

SMILES strings stand for the structures.

The target of the assay is T1, Taste receptor type 2 member 39 (Homo sapiens) (UniProt P59534).
T1 sequence (whole entry): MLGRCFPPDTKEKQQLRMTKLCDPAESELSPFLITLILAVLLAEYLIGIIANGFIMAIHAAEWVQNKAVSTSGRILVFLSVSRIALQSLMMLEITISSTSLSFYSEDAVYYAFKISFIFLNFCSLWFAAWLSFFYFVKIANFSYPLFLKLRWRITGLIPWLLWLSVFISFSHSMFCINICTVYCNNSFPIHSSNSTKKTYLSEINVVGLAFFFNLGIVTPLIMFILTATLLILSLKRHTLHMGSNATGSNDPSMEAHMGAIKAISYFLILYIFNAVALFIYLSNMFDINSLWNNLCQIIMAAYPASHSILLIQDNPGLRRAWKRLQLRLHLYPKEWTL
The assay can be described thus: Inhibition of human TAS2R39 expressed in HEK293 cells coexpressing G-protein at 10 mM assessed as reduction in epicatechin gallate-induced intracellular calcium release by Fluo-4-AM dye based fluorescence assay relative to control. In kind it is functional, cell-based.
A word on the inhibition: it is the relative decrease from the control value, in per cent. Turning to `O=C(O)/C=C/c1ccc(O)c(O)c1`, the inhibition came to 30%. In the case of `N[C@@H](Cc1ccccc1)C(=O)O`, the inhibition is 0%. Under `O=C(O)CCCc1ccccc1` stands 40%; under `COc1cccc(C(=O)O)c1O`, 25%; under `COc1ccc(CCC(=O)O)cc1OC`, 35%. For the compound `O=C(O)CCc1ccc(O)c(O)c1`, the inhibition is 30%. Under `O=C(O)c1ccc(O)cc1` stands 25%; under `COc1cc(/C=C/C(=O)O)cc(OC)c1O`, 65%; under `COc1ccc(C(=O)O)cc1`, 15%. Under `COc1cc(CC(=O)O)cc(OC)c1OC` stands 25%.

With `O=C(O)c1ccc(O)c(O)c1`, the inhibition is 15%. As for `COc1cc(/C=C/C(=O)O)ccc1O`, the inhibition was 65%. Turning to `COc1ccccc1C(=O)O`, the inhibition stood at 10%.

On to `O=C(O)c1cc(O)c(O)c(O)c1`, for which the inhibition stood at 25%. Regarding `O=C(O)c1ccccc1`, the inhibition is 20%. As for `COc1cc(C(=O)O)cc(OC)c1OC`, the inhibition was 20%. The figure for `O=C(O)Cc1ccc(O)cc1` is 20%; for `COc1ccc(C(=O)O)cc1OC` it is 10%. Under `COc1cc(CCC(=O)O)ccc1O` stands 35%; under `COc1cccc(C(=O)O)c1`, 5%; under `O=C(O)CCc1ccccc1`, 15%.

Turning to `COc1cc(CCC(=O)O)cc(OC)c1OC`, the inhibition is 35%. Under `O=C(O)CCc1ccc(O)cc1` stands 25%. The figure for `O=C(O)Cc1ccc(O)c(O)c1` is 15%. As to `O=C(O)/C=C/c1ccc(O)cc1`, the inhibition was 40%.

Regarding `O=C(O)Cc1ccccc1`, the inhibition was 5%. Consider `COc1ccc(CC(=O)O)cc1`, for which the inhibition was found to be 15%. Regarding `COc1ccc(/C=C/C(=O)O)cc1`, the inhibition was determined as 30%. With `COc1cc(/C=C/C(=O)O)cc(OC)c1`, the inhibition is 20%.

On to `COc1cc(/C=C/C(=O)O)cc(OC)c1OC`, for which the inhibition worked out at 70%.

As for `COc1ccc(CCC(=O)O)cc1`, the inhibition worked out at 40%.

For the compound `COc1cccc(/C=C/C(=O)O)c1`, the inhibition is 0%. Regarding `COc1ccc(/C=C/C(=O)O)c(OC)c1`, the inhibition stood at 40%.

Consider `O=C(O)/C=C/c1ccccc1`, for which the inhibition was determined as 40%. The figure for `COc1ccccc1/C=C/C(=O)O` is 0%.
